Test results taken from patent publication US10745384B2, “Indazole derivatives as αv integrin antagonists” (BRISTOL-MYERS SQUIBB COMPANY, priority 2016, dated 2020).
Counter-ions that a name gives are not always drawn.

Target: T1, human αVβ6 (Homo sapiens, UniProt P06756+P18564)
T1 construct: purchased R & D systems 3817-AV
Assay: human αVβ6 HTRF binding assay
Details: recombinant human αVβ6 integrin, FITC-conjugated fibronectin
Experimental: All binding assays used the HTRF (homogeneous time resolved fluorescence) technology from Cisbio International, therefore all assays are described as HTRF binding assays. The assay results for the Examples are listed above together with the characterization data. The HTRF binding assays are established for the following integrins: human αVβ6, human αVβ1, human αVβ3, human αVβ5, and human αVβ8. All assays used the following assay buffer: 20 mM Tris, pH 7.4, 1 mM MgCl2, 1 mM MnCl2, 0.01% Tween 20, and 0.01% BSA. Alternatively, a SPA-based assay was used for evaluation of receptor binding.
The following describes the components and a representative procedure for the human αVβ6 HTRF binding assay: Recombinant human αVβ6 Integrin (R & D systems, 3817-AV) was biotinylated. Biotinylated human αVβ6 Integrin was added to assay vessel at a final concentration of 1.25 nM. FITC-conjugated fibronectin (Cytoskeleton, FNR02) was then added at the final concentration of 5 nM. The mixture was centrifuged at 600 rpm for three minutes using Thermo Fisher Heraeus Multifuge X3 centrifuge and then incubated at room temperature for an hour. Streptavidin Terbium (Cisbio international 610STLB) was then added at the final concentration of 0.625 nM. The resulting mixture was centrifuged at 600 rpm for three minutes using Thermo Fisher Heraeus Multifuge X3 centrifuge and then incubated at room temperature overnight in dark before reading HTRF signals. […]

T1 sequence (P06756 31-992 limits assumed): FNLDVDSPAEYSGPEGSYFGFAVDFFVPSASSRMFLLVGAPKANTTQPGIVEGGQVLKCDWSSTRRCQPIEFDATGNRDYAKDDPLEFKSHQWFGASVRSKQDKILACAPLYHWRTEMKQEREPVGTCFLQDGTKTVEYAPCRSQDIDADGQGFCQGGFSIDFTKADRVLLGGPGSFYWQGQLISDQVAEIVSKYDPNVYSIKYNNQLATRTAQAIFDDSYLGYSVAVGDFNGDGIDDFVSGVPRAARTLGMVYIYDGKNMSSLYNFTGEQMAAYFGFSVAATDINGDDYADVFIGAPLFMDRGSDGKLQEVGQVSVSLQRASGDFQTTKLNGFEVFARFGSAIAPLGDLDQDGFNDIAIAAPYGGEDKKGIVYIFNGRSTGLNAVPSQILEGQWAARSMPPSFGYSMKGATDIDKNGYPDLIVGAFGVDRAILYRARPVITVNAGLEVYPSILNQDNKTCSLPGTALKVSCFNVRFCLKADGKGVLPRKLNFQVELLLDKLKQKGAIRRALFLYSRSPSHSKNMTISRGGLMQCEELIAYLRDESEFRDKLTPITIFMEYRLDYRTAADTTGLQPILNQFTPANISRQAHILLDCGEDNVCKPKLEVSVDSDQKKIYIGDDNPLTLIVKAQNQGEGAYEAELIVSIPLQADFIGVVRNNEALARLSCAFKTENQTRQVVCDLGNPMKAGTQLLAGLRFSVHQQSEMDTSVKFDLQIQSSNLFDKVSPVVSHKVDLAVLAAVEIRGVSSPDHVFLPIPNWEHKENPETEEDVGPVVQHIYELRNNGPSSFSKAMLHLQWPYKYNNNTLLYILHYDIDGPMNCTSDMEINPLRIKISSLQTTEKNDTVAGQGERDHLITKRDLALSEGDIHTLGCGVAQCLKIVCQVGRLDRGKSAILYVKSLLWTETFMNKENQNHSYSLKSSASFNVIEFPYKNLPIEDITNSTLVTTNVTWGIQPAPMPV
T1 sequence (P18564 22-707 limits assumed): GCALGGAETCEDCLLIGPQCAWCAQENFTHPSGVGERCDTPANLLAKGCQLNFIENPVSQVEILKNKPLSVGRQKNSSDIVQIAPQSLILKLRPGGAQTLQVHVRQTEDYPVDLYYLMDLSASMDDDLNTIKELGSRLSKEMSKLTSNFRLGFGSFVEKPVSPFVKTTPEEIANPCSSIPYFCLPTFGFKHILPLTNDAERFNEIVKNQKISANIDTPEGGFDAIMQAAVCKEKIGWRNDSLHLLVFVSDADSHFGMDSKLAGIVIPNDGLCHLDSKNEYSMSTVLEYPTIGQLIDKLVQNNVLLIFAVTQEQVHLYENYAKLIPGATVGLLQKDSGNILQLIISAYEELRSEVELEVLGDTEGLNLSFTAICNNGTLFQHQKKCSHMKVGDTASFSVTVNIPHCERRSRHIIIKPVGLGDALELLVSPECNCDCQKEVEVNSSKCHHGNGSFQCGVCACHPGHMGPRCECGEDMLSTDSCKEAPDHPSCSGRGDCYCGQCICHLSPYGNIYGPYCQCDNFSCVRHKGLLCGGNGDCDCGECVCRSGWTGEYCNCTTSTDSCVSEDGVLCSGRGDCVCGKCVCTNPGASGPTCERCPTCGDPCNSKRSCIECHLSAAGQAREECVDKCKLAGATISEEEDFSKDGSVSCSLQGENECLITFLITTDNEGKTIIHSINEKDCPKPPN

IC50 | SMILES
19 nM | COc1ccc([C@H](CC(=O)O)n2cc3cc(CCc4ccc5c(n4)NCCC5)ccc3n2)cn1 [Example 64, (S)-3-(6-Methoxypyridin-3-yl)-3-(5-(2-(5,6,7,8-tetrahydro-1,8-naphthyridin-2-yl)ethyl)-2H-indazol-2-yl)propanoic acid]
740 nM | COc1ccc([C@H](CC(=O)O)n2cc3cc(CCCc4ccc5c(n4)NCCC5)ccc3n2)cn1 [Example 67, (S)-3-(6-Methoxypyridin-3-yl)-3-(5-(3-(5,6,7,8-tetrahydro-1,8-naphthyridin-2-yl)propyl)-2H-indazol-2-yl)propanoic acid]
1.5 nM | Cc1cc(C)n(-c2cccc(C(CC(=O)O)n3ncc4cc(OCCc5ccc6c(n5)NCCC6)ccc43)c2)n1 (stereo not shown) [Example 68, 3-(3-(3,5-Dimethylpyrazol-1-yl)phenyl)-3-(5-(2-(5,6,7,8-tetrahydro-1,8-naphthyridin-2-yl)ethoxy)-1H-indazol-1-yl)propanoic acid, TFA]
400 nM | O=C(O)CC(Cc1ccc(OCc2ccccc2)cc1)n1ncc2cc(OCCc3ccc4c(n3)NCCC4)ccc21 (stereo not shown) [Example 69, 4-(4-(Benzyloxy)phenyl)-3-(5-(2-(5,6,7,8-tetrahydro-1,8-naphthyridin-2-yl)ethoxy)-1H-indazol-1-yl)butanoic acid, TFA]
953 nM | COc1ccc(C(CC(=O)O)n2nc(C)c3cc(OCCc4ccc5c(n4)NCCC5)ccc32)cn1 (stereo not shown) [Example 70, 3-(6-Methoxypyridin-3-yl)-3-(3-methyl-5-(2-(5,6,7,8-tetrahydro-1,8-naphthyridin-2-yl)ethoxy)-1H-indazol-1-yl)propanoic acid]
64 nM | Cn1ccc(C(CC(=O)O)n2ncc3cc(OCCc4ccc5c(n4)NCCC5)ccc32)cc1=O (stereo not shown) [Example 71, 3-(1-Methyl-2-oxo-1,2-dihydropyridin-4-yl)-3-(5-(2-(5,6,7,8-tetrahydro-1,8-naphthyridin-2-yl)ethoxy)-1H-indazol-1-yl)propanoic acid, TFA]
1800 nM | O=C(O)C(CCc1ccccc1)Cn1ncc2cc(OCCc3ccc4c(n3)NCCC4)ccc21 (stereo not shown) [Example 73, 4-Phenyl-2-((5-(2-(5,6,7,8-tetrahydro-1,8-naphthyridin-2-yl)ethoxy)-1H-indazol-1-yl)methyl)butanoic acid]
23 nM | O=C(O)CC(c1ccncc1)n1ncc2cc(OCCc3ccc4c(n3)NCCC4)ccc21 (stereo not shown) [Example 75, 3-(Pyridin-4-yl)-3-(5-(2-(5,6,7,8-tetrahydro-1,8-naphthyridin-2-yl)ethoxy)-1H-indazol-1-yl)propanoic acid, 2 TFA]
3400 nM | O=C(O)CC1(n2ncc3cc(OCCc4ccc5c(n4)NCCC5)ccc32)CC1 [Example 76, 2-(1-(5-(2-(5,6,7,8-tetrahydro-1,8-naphthyridin-2-yl)elhoxy)-1H-indazol-1-yl)cyclopropyl)acetic acid, TFA]
804 nM | O=C(O)CC(Cc1ccc(F)cc1)n1ncc2cc(OCCc3ccc4c(n3)NCCC4)ccc21 (stereo not shown) [Example 78, 4-(4-Fluorophenyl)-3-(5-(2-(5,6,7,8-tetrahydro-1,8-naphthyridin-2-yl)ethoxy)-1H-indazol-1-yl)butanoic acid, TFA]
33 nM | COc1cnc(C(CC(=O)O)n2ncc3cc(OCCc4ccc5c(n4)NCCC5)ccc32)cn1 (stereo not shown) [Example 79, 3-(5-Methoxypyrazin-2-yl)-3-(5-(2-(5,6,7,8-tetrahydro-1,8-naphthyridin-2-yl)ethoxy)-1H-indazol-1-yl)propanoic acid, TFA]
13 nM | O=C(O)CC(c1ccc2nccnc2c1)n1ncc2cc(OCCc3ccc4c(n3)NCCC4)ccc21 (stereo not shown) [Example 80, 3-(Quinoxalin-6-yl)-3-(5-(2-(5,6,7,8-tetrahydro-1,8-naphthyridin-2-yl)ethoxy)-1H-indazol-1-yl)propanoic acid, TFA]
3.2 nM | O=C(O)C[C@@H](c1cnc2ccccc2c1)n1cc2ccc(CCc3ccc4c(n3)NCCC4)cc2n1 [Example 81, (S)-3-(Quinolin-3-yl)-3-(6-(2-(5,6,7,8-tetrahydro-1,8-naphthyridin-2-yl)ethyl)-2H-indazol-2-yl)propanoic acid]
150 nM | Cc1nc2c(cc1Cc1ccc3cn([C@@H](CC(=O)O)c4cnc5ccccc5c4)nc3c1)CCCN2 [Example 82, (S)-3-(6-((2-Methyl-5,6,7,8-tetrahydro-1,8-naphthyridin-3-yl)methyl)-2H-indazol-2-yl)-3-(quinolin-3-yl)propanoic acid]
120 nM | O=C(O)C[C@@H](c1cccc(N2CCCC2=O)c1)n1ncc2cc(OCCc3ccc4c(n3)NCCC4)ccc21 [Example 84, (S)-3-(3-(2-Oxopyrrolidin-1-yl)phenyl)-3-(5-(2-(5,6,7,8-tetrahydro-1,8-naphthyridin-2-yl)ethoxy)-1H-indazol-1-yl)propanoic acid, TFA]
2.5 nM | O=C(O)C[C@H](c1cccc(N2CCCC2=O)c1)n1ncc2cc(OCCc3ccc4c(n3)NCCC4)ccc21 [Example 85, (R)-3-(3-(2-Oxopyrrolidin-1-yl)phenyl)-3-(5-(2-(5,6,7,8-tetrahydro-1,8-naphthyridin-2-yl)ethoxy)-1H-indazol-1-yl)propanoic acid, TFA]
7.8 nM | COc1ncc(C(CC(=O)O)n2ncc3cc(OCCc4ccc5c(n4)NCCC5)ccc32)cc1F (stereo not shown) [Example 86, 3-(5-Fluoro-6-methoxypyridin-3-yl)-3-(5-(2-(5,6,7,8-tetrahydro-1,8-naphthyridin-2-yl)ethoxy)-1H-indazol-1-yl)propanoic acid, TFA]
20 nM | O=C(O)C[C@@H](c1cnc2ccccc2c1)n1cc2ccc(CCCC3CCc4cccnc4N3)cc2n1 (stereo partly drawn) [Example 88, (3S)-3-(Quinolin-3-yl)-3-(6-(3-(1,2,3,4-tetrahydro-1,8-naphthyridin-2-yl)propyl)-2H-indazol-2-yl)propanoic acid]
9.5 nM | Cc1cc(C(CC(=O)O)n2ncc3cc(OCCc4ccc5c(n4)NCCC5)ccc32)cnc1OCC(C)(C)O (stereo not shown) [Example 90, 3-(6-(2-Hydroxy-2-methylpropoxy)-5-methylpyridin-3-yl)-3-(5-(2-(5,6,7,8-tetrahydro-1,8-naphthyridin-2-yl)ethoxy)-1H-indazol-1-yl)propanoic acid, TFA]
31 nM | O=C(O)CC(c1ccc2c(n1)NCCO2)n1ncc2cc(OCCc3ccc4c(n3)NCCC4)ccc21 (stereo not shown) [Example 91, 3-(3,4-Dihydro-2H-pyrido[3,2-b][1,4]oxazin-6-yl)-3-(5-(2-(5,6,7,8-tetrahydro-1,8-naphthyridin-2-yl)ethoxy)-1H-indazol-1-yl)propanoic acid, 2 TFA]
8.1 nM | O=C(O)CC(c1ccnc(N2CCCC2=O)c1)n1ncc2cc(OCCc3ccc4c(n3)NCCC4)ccc21 (stereo not shown) [Example 93, 3-(2-(2-Oxopyrrolidin-1-yl)pyridin-4-yl)-3-(5-(2-(5,6,7,8-tetrahydro-1,8-naphthyridin-2-yl)ethoxy)-1H-indazol-1-yl)propanoic acid, TFA]
13 nM | O=C(O)CC(c1ccc2cnccc2c1)n1ncc2cc(OCCc3ccc4c(n3)NCCC4)ccc21 (stereo not shown) [Example 94, 3-(Isoquinolin-6-yl)-3-(5-(2-(5,6,7,8-tetrahydro-1,8-naphthyridin-2-yl)ethoxy)-1H-indazol-1-yl) propanoic acid, 2 TFA]
7.2 nM | O=C(O)CC(c1ccc2cccnc2n1)n1ncc2cc(OCCc3ccc4c(n3)NCCC4)ccc21 (stereo not shown) [Example 96, 3-(1,8-Naphthyridin-2-yl)-3-(5-(2-(5,6,7,8-tetrahydro-1,8-naphthyridin-2-yl)ethoxy)-1H-indazol-1-yl)propanoic acid, 2 TFA]
160 nM | O=C(N[C@@H](Cn1cc2cc(OCc3ccc4c(n3)NCCC4)ccc2n1)C(=O)O)OCc1ccccc1 [Example 98, (S)-2-(((Benzyloxy)carbonyl)amino)-3-(5-((5,6,7,8-tetrahydro-1,8-naphthyridin-2-yl)methoxy)-2H-indazol-2-yl)propanoic acid]
340 nM | O=C(O)C[C@H](c1cncc(CO)c1)n1ncc2cc(OCCc3ccc4c(n3)NCCC4)ccc21 [Example 99, (R)-3-(5-(Hydroxymethyl)pyridin-3-yl)-3-(5-(2-(5,6,7,8-tetrahydro-1,8-naphthyridin-2-yl)ethoxy)-1H-indazol-1-yl)propanoic acid]
5.4 nM | O=C(O)CC(c1cnc2c(cnn2C2CCCCO2)c1)n1ncc2cc(OCCc3ccc4c(n3)NCCC4)ccc21 (stereo not shown) [Example 103, 3-(5-(2-(5,6,7,8-tetrahydro-1,8-naphthyridin-2-yl)ethoxy)-1H-indazol-1-yl)-3-(1-(tetrahydro-2H-pyran-2-yl)pyrazolo[3,4-b]pyridin-5-yl)propanoic acid, TFA]
10 nM | CN(C)Cc1cncc(C(CC(=O)O)n2ncc3cc(OCCc4ccc5c(n4)NCCC5)ccc32)c1 (stereo not shown) [Example 105, 3-(5-((Dimethylamino)methyl)pyridin-3-yl)-3-(5-(2-(5,6,7,8-tetrahydro-1,8-naphthyridin-2-yl)ethoxy)-1H-indazol-1-yl)propanoic acid]

SMILES | IC50
CC(C)(C)OC(=O)N1CCC(C(CC(=O)O)n2ncc3cc(OCCc4ccc5c(n4)NCCC5)ccc32)CC1 (stereo not shown) [Example 74, 3-(1-(tert-Butoxycarbonyl)piperidin-4-yl)-3-(5-(2-(5,6,7,8-tetrahydro-1,8-naphthyridin-2-yl)ethoxy)-1H-indazol-1-yl)propanoic acid] | 260 nM
